Measurements as given in patent publication US20220396794A1, “APTAMERS AGAINST TRANSFERRIN RECEPTOR (TfR)” (APTERNA LIMITED, priority 2019, published 2022).

How the values were obtained:
[1] = molecular target: T1, hTfR1 (extracellular domain of hTfR, His6-tagged) (Homo sapiens, UniProt P02786); assay: Surface plasmon resonance-based biosensor assay (Biacore T100), aptamer-hTfR binding affinity and kinetics; conditions: for ka (1/Ms), measured association rate / kd (1/s), measured disassociation rate / Kd: Biacore T100, biotinylated aptamer on streptavidin chip, hTfR1 protein injected, 1:1 binding with mass transfer; for binding affinity and kinetics for hTfR1 (Biacore sensorgram), in words: compared with parent TR14; for Kd: read-out: K^D (M), equilibrium dissociation constant
T1 construct: (NP_003225.2) (Cys 89-Phe 760); His6 (N); purchased Sino Biological Inc 11020-H07H; host or cells: HEK293
T1 sequence (P02786 89-760): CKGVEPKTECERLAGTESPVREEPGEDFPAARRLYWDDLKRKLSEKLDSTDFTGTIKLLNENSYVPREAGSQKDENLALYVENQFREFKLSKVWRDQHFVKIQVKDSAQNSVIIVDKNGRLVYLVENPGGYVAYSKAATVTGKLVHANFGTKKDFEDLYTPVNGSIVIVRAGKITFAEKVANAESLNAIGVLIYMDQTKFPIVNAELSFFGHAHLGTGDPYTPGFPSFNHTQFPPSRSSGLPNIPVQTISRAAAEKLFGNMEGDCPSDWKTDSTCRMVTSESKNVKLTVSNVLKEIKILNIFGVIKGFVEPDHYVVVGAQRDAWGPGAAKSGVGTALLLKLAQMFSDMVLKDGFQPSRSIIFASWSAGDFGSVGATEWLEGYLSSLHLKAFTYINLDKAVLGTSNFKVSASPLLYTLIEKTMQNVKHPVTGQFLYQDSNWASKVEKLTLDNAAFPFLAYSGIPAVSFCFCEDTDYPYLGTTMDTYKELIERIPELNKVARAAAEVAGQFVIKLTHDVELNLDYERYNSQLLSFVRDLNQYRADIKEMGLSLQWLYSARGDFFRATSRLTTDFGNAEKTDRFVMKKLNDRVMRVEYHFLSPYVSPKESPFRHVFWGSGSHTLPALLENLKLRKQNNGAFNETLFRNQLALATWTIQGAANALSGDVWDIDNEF
Source text: Recombinant target protein. hTfR was purchased from Sino Biological Inc (11020-H07H, Beijing, P.R. China). The extracellular domain of hTfR (NP_003225.2) (Cys 89-Phe 760) was expressed with a His6-tag at the N-terminus in human cells (HEK293).
Surface plasmon resonance-based biosensor assay. The Biacore T100 (GE Healthcare, Uppsala, Sweden) was used to monitor label-free interactions of truncated TR14-hTfR1 in real time. The biotinylated aptamer was coupled to a streptavidin-coated Biacore chip (SensorChip SA, BR-1003-98, General Electric Company) by an injection in binding buffer at a concentration of 25 μg/mL (30 mM Tris-HCl, pH 7.5; 150 mM NaCl; 5 mM MgCl2) at 10 uL/min. The RNA was refolded by heating to 65° C., followed by cooling to 37° C., before immobilization. To measure binding kinetics, five concentrations of purified hTfR1 protein were injected at a flow rate of 10 uL/min. After binding, the surface was regenerated by injecting 50 mM NaOH at a flow rate of 15 μL/min for 20 s. Data from the control surface were subtracted. BIAevaluation software (GE Healthcare) was used for analysis. The binding data was fit to a 1:1 binding with a mass transfer model to calculate kinetics parameters as previously described (Hernandez et al, 2009; Soontornworajit et al, 2011)

TfR1 = molecular target: T2, TfR1 (Homo sapiens, UniProt P02786); assay: Cross-reactivity by live cell confocal imaging, U87MG cells (express TfR1, not TfR2); type: cell-based; conditions: Cy3-labelled aptamer, U87MG cells (TfR1 only)
T2 construct: The U87MG cells only express TfR1, not TfR2; endogenous in cells; host or cells: U87MG (U-87 MG, ATCC HTB-14)
T2 sequence (P02786 whole entry): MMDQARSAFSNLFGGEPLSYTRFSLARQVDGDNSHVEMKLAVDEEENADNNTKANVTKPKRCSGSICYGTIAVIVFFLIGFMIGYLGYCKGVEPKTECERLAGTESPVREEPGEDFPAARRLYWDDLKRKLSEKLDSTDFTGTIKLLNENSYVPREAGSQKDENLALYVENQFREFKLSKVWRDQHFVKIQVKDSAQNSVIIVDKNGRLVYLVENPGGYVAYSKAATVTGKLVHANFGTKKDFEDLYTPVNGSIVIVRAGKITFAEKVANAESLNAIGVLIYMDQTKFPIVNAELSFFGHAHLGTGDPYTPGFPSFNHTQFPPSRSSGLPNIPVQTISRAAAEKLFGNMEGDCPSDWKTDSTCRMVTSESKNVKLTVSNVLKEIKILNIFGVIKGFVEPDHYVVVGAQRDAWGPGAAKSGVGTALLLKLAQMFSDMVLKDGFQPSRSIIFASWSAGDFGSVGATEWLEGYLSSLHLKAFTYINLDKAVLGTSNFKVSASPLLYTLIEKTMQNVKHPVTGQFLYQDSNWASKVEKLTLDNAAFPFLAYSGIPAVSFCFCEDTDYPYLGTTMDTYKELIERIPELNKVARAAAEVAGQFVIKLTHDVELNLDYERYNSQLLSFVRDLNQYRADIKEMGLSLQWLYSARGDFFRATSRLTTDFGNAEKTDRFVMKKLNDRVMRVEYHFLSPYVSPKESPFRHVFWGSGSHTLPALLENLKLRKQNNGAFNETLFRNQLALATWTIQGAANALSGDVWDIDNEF
Protocol: (§1) Cell line. HepG2 (Hepatocarcinoma, HB-8065) and PANC-1 (Pancreatic epithelioid carcinoma, CRL-1469), U-87 MG (Glioblastoma, HTB-14) were purchased from the American Type Culture Collection (ATCC, Manassas, Va.). The cells were cultured according to the suppliers' instructions. TB10 human glioma cell line was obtained from Vittorio de Franciscis lab in Italy. The cells were cultured according to the suppliers' instructions.
(§2) To determine the potential cross-reactivity of the parent TR14, S2 (43-nt) and ST1-3 (22-nt) truncates, we tested chemically synthesized parent TR14, TR14-[…] or TR14-ST1-3 aptamer labelled with Cy3 on live cells imaging by confocal microscopy. To test this, we choose two glioblastoma cell lines (U87MG and TB10) that are selectively expressed of TfR1 or TfR2. The U87MG cells only express TfR1, not TfR2. In contrast, TB10 expresses TfR2, not TfR1.

TfR2 = molecular target: T3, TfR2 (Homo sapiens, UniProt Q9UP52); assay: Cross-reactivity by live cell confocal imaging, TB10 cells (express TfR2, not TfR1); type: cell-based; conditions: Cy3-labelled aptamer, TB10 cells (TfR2 only)
T3 construct: In contrast, TB10 expresses TfR2, not TfR1; endogenous in cells; host or cells: TB10 human glioma cells
T3 sequence (Q9UP52 1-801): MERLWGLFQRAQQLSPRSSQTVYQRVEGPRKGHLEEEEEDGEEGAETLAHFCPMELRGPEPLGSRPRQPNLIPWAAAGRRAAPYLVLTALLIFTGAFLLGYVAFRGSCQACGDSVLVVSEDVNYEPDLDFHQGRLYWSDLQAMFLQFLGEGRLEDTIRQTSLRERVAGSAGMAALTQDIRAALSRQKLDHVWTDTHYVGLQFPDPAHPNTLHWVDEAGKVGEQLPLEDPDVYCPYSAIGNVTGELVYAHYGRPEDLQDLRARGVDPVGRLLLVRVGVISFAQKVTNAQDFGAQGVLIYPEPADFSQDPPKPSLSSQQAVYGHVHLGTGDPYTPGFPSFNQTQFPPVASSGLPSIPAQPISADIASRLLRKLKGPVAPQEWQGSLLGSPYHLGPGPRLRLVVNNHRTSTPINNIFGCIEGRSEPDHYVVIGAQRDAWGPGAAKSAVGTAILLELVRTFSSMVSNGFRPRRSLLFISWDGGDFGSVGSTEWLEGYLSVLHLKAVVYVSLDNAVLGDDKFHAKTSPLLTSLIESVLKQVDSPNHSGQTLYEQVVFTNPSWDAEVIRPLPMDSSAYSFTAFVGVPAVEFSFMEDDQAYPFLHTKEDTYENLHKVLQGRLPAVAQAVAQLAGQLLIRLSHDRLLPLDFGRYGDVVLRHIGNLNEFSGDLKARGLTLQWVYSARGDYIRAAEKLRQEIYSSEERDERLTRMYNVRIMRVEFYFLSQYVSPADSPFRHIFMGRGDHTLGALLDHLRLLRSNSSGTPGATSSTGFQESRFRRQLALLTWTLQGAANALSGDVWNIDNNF
Protocol: as §1, §2

PANC-Luc tumors = assay: Liver-metastatic pancreatic cancer mouse model, combinational treatment with gemcitabine; type: in vivo, NOD/SCID mice; conditions: gemcitabine alone 50 mg/kg 2 times/week I.V., compared to vehicle-treated control
Protocol: Intrahepatic pancreatic cancer liver-metastatic mouse model. To create an animal model harboring traceable tumors, a firefly luciferase fragment was inserted into the pLKO.1-AS3 backbone encoding the neo gene (National RNAi Core, Academia Sinica, Taiwan). One day before transduction, 293T cells were plated onto a 6-well plate. On the day of transduction, the medium was replaced with DMEM containing serial dilutions of the transfer plasmids and incubated for 5 h, then the medium was replaced. After two days, the culture medium containing recombinant lentiviral particles was obtained. PANC-1 cells were incubated with recombinant lentiviral particles for 24 h. […] Luciferase expression was assessed using the Luciferase Assay System. […] For the combinational treatment with gemcitabine, tumors were allowed to grow for 2 weeks after inoculation until they could be detected using an IVIS system, then mice were randomly divided into five groups of 10 animals/group. […] Tumor growth was monitored by evaluating bioluminescence using an IVIS 200 in vivo imaging platform (Caliper Life Sciences, Alameda, Calif.) and measuring the difference from before the first injection and one day after the last injection. […] The mice were imaged using the IVIS 200 and bioluminescent signals were analyzed using Living Image Software (Caliper Life Sciences, Alameda, Calif.). […]

| Molecule | ka (1/Ms), measured association rate [1] [M⁻¹ s⁻¹] | kd (1/s), measured disassociation rate [1] [s⁻¹] | binding affinity and kinetics for hTfR1 (Biacore sensorgram), in words [1] | binding to TfR1 (TfR1) | binding to TfR2 (TfR2) | Kd [1] [M] | reduction of tumor volume (PANC-Luc tumors) [%] |
| --- | --- | --- | --- | --- | --- | --- | --- |
| TR14 S2: TR14 truncate, 43-nt, with 5′-GGG; SEQ ID NO:3 (GGGGCUCAAUGCGUUCACGUUUAUUCACAUUUUUGAAUUGAGC; listed as RNA, chemistry not given here) | 8.34e+08 | 0.000577 | improved kinetic constants | selective binding to TfR1 | selective binding to TfR1 |  |  |
| TR14 ST1-2: TR14 truncate, 32-nt, 5′-AAUGCGUUCACGUUUAUUCACAUUUUUGAAUU-3′; SEQ ID NO:5 (listed as RNA, chemistry not given here) |  |  | neither TR14 ST1-1 nor TR14 ST1-2 were measurable |  |  |  |  |
| TR14 ST1-3: TR14 truncate, 22-nt, 5′-UUUAUUCACAUUUUUGAAUUGA-3′; SEQ ID NO:6 (listed as RNA, chemistry not given here) | 6.3e+06 | 0.000138 |  | cross-activity on both TfR1 and TfR2 | cross-activity on both TfR1 and TfR2 | 2.2e-11 |  |
| TR14 S1: TR14 truncate, 46-nt, with 5′-GGG; SEQ ID NO:2 (GGGGCUCAAUGCGUUCACGUUUAUUCACAUUUUUGAAUUGAGCAUG; listed as RNA, chemistry not given here) | 13000 | 1.89e-05 |  |  |  | 1.46e-09 |  |
| Nc1ccn([C@@H]2O[C@H](CO)[C@@H](O)C2(F)F)c(=O)n1 [gemcitabine, 2′, 2′-difluoro 2′deoxycytidine, reference compound] |  |  |  |  |  |  | ~70 |
| TR14 ST1-1: TR14 truncate, 40-nt, without 5′-GGG, chemically synthesized; SEQ ID NO:4 (GCUCAAUGCGUUCACGUUUAUUCACAUUUUUGAAUUGAGC; chemically synthesized, modifications not given here, further chemistry not given here) |  |  | neither TR14 ST1-1 nor TR14 ST1-2 were measurable |  |  |  |  |
